# Measured values taken from patent publication US11358952B2, “Substituted 4-aminoisoindoline-1,3-dione compounds, compositions thereof, and methods of treatment therewith” (Celgene Corporation, priority 2018, dated 2022).
# Tested on: SU-DHL-4 cell line
# Assay: SU-DHL-4 cell proliferation assay (Cell Titer-Glo viability)
# Assay type: cell-based
# Details: Homo sapiens; cell viability IC50 activity level, DLBCL cell line SU-DHL-4, 120 hours post-treatment; read-out: SU-DHL-4 Act
# Experimental: SU-DHL-4 Cell Proliferation Assay.
# The following is an example of an assay that can be used to determine the anti-proliferative activity of Isoindolinedione Compounds in a DLBCL cell line, for example, the SU-DHL-4 cell line (Deutsche Sammlung von Mikroorganismen and Zellkulturen GmbH [DSMZ]: catalogue number ACC-495) at 120 hours post-treatment. The seeding density for SU-DHL-4 can be optimized to ensure assay linearity in 1536-well plates.
# Increasing concentrations of test compounds (0.5 nM to 10 μM) were spotted in a 20-point dilution fashion (unevenly spaced data points) via an acoustic dispenser (EDC ATS-100) into an empty 1536-well plate. The DMSO concentration was kept constant for a final assay concentration of 0.1% DMSO. Prior to testing, SU-DHL-4 cells were grown in RPMI-1640 (Roswell Park Memorial Institute—1640) medium with 10% FBS (fetal bovine serum: HyClone) and expanded in culture flasks to provide sufficient amounts of starting material. Cells were then diluted to 500 cells per well in a 5 μL volume, and added directly to the compound-spotted 1536-well plates. Cells were allowed to grow for 120 hours in 5% CO2 at 37° C. At the time when exposure of cells to compound began (to), initial viable cell number was assessed via Cell Titer-Glo® Luminescent Cell Viability Assay at a 1 vol:2 vol ratio according to manufacturer's instructions (Promega Corporation, Madison, Wis.) by quantifying the level of luminescence generated by adenosine-5′-triphosphate (ATP) present in viable cells. After 120 hours, cell viability of the treated cells was assessed via Cell Titer-Gb® and read for luminescence. All growth inhibition curves were processed and evaluated using Activity Base (IDBS, Alameda, Calif.). Cell viability IC50 values were calculated using a four parameter logistic model (sigmoidal dose-response model): y=(A+((B−A)/(1+((C/x)^D)))) wherein: A=YMin B=YMax C=EC50 D=Hill slope IC50=the concentration of the compound when Y=50% of DMSO control Y=cell viability measured as luminescence unit, and x=concentration of compound.
row,SMILES,IC50 [nM]
1,"O=C1CCC(N2C(=O)c3cccc(NCc4ccc(CN5Cc6cccc(C(F)(F)F)c6C5)cc4)c3C2=O)C(=O)N1 (stereo not shown) [Cpd 164, 2-(2,6-dioxopiperidin-3-yl)-4-(4-((4-(trifluoromethyl)isoindolin-2-yl)methyl)benzylamino)isoindoline-1,3-dione]",200 to 500
2,"Cc1cc(CNc2cccc3c2C(=O)N(C2CCC(=O)NC2=O)C3=O)ccc1CN1CC(c2cccc(C#N)c2)C1 (stereo not shown) [Cpd 52, 3-(1-(4-((2-(2,6-dioxopiperidin-3-yl)-1,3-dioxoisoindolin-4-ylamino)methyl)-2-mtehylbenzyl)azetidin-3-yl)benzonitrile]",< 200
3,"Cc1cc(CNc2cccc3c2C(=O)N(C2CCC(=O)NC2=O)C3=O)ccc1CN1CCC2(COC2)C1 (stereo not shown) [Cpd 229, 4-(4-(2-oxa-6-azaspiro[3.4]octan-6-ylmethyl)-3-methylbenzylamino)-2-(2,6-dioxopiperidin-3-yl)isoindoline-1,3-dione]",501 to 750
4,"CCC1CCN(Cc2ccc(CNc3cccc4c3C(=O)N(C3CCC(=O)NC3=O)C4=O)cc2)CC1 (stereo not shown) [Cpd 22, 2-(2,6-dioxopiperidin-3-yl)-4-(4-((4-ethylpiperidin-1-yl)methyl)benzylamino)isoindoline-1,3-dione]",200 to 500
5,"Cc1cc(CNc2cccc3c2C(=O)N(C2CCC(=O)NC2=O)C3=O)ccc1CN1CC(c2ccccn2)C1 (stereo not shown) [Cpd 81, 2-(2,6-dioxopiperidin-3-yl)-4-(3-methyl-4-((3-(pyridin-2-yl)azetidin-1-yl)methyl)benzylamino)isoindoline-1,3-dione]",200 to 500
6,"O=C1CCC(N2C(=O)c3cccc(NCc4ccc(CN5CC6(CCC6)C5)c(F)c4)c3C2=O)C(=O)N1 (stereo not shown) [Cpd 162, 4-(4-(2-azaspiro[3.3]heptan-2-ylmethyl)-3-fluorobenzylamino)-2-(2,6-dioxopiperidin-3-yl)isoindoline-1,3-dione]",200 to 500
7,"Cc1cc(CNc2cccc3c2C(=O)N(C2CCC(=O)NC2=O)C3=O)ccc1CN1CC2(CCCC2)C1 (stereo not shown) [Cpd 200, 4-(4-(2-azaspiro[3.4]octan-2-ylmethyl)-3-methylbenzylamino)-2-(2,6-dioxopiperidin-3-yl)isoindoline-1,3-dione]",< 200
8,"O=C1CCC(N2C(=O)c3cccc(NCc4ccc(CN5CCC(C(F)(F)F)CC5)cc4)c3C2=O)C(=O)N1 (stereo not shown) [Cpd 26, 2-(2,6-dioxopiperidin-3-yl)-4-(4-((4-(trifluoromethyl)piperidin-1-yl)methyl)benzylamino)isoindoline-1,3-dione]",200 to 500
9,"O=C1CCC(N2C(=O)c3cccc(NCc4ccc(CN5CC6(CCC6)C5)cc4)c3C2=O)C(=O)N1 (stereo not shown) [Cpd 115, 4-(4-(2-azaspiro[3.3]heptan-2-ylmethyl)benzylamino)-2-(2,6-dioxopiperidin-3-yl)isoindoline-1,3-dione]",< 200
10,"CC(C)(C)OC1CCN(Cc2ccc(CNc3cccc4c3C(=O)N(C3CCC(=O)NC3=O)C4=O)cc2)CC1 (stereo not shown) [Cpd 38, 4-(4-((4-tert-butoxypiperidin-1-yl)methyl)benzylamino)-2-(2,6-dioxopiperidin-3-yl)isoindoline-1,3-dione]",< 200
11,"Cc1nnc(N2CCN(Cc3ccc(CNc4cccc5c4C(=O)N(C4CCC(=O)NC4=O)C5=O)cc3)CC2)s1 (stereo not shown) [Cpd 193, 2-(2,6-dioxopiperidin-3-yl)-4-(4-((4-(5-methyl-1,3,4-thiadiazol-2-yl)piperazin-1-yl)methyl)benzylamino)isoindoline-1,3-dione]",200 to 500
12,"O=C1CCC(N2C(=O)c3cccc(NCc4ccc(CN5CCN(c6ccc(F)cc6F)CC5)cc4F)c3C2=O)C(=O)N1 (stereo not shown) [Cpd 108, 4-(4-((4-(2,4-difluorophenyl)piperazin-1-yl)methyl)-2-fluorobenzylamino)-2-(2,6-dioxopiperidin-3-yl)isoindoline-1,3-dione]",< 200
13,"NC(=O)c1ncccc1N1CCN(Cc2ccc(CNc3cccc4c3C(=O)N(C3CCC(=O)NC3=O)C4=O)c(F)c2)CC1 (stereo not shown) [Cpd 180, 3-(4-(4-((2-(2,6-dioxopiperidin-3-yl)-1,3-dioxoisoindolin-4-ylamino)methyl)-3-fluorobenzyl)piperazin-1-yl)picolinamide]",200 to 500
14,"O=C1CCC(N2C(=O)c3cccc(NCc4ccc(CN5CC6(CCOCC6)C5)cc4)c3C2=O)C(=O)N1 (stereo not shown) [Cpd 219, 4-(4-(7-oxa-2-azaspiro[3.5]nonan-2-ylmethyl)benzylamino)-2-(2,6-dioxopiperidin-3-yl)isoindoline-1,3-dione]",< 200
15,"Cc1cc(N2CCN(Cc3ccc(CNc4cccc5c4C(=O)N(C4CCC(=O)NC4=O)C5=O)cc3)CC2)no1 (stereo not shown) [Cpd 199, 2-(2,6-dioxopiperidin-3-yl)-4-(4-((4-(5-methylisoxazol-3-yl)piperazin-1-yl)methyl)benzylamino)isoindoline-1,3-dione]",< 200
16,"C[C@@H]1CN(C2CN(Cc3ccc(CNc4cccc5c4C(=O)N(C4CCC(=O)NC4=O)C5=O)c(F)c3)C2)C[C@H](C)O1 (stereo partly drawn) [Cpd 222, 4-(4-((3-((2R,6S)-2,6-dimethylmorpholino)azetidin-1-yl)methyl)-2-fluorobenzylamino)-2-(2,6-dioxopiperidin-3-yl)isoindoline-1,3-dione]",200 to 500
17,"O=C1CCC(N2C(=O)c3cccc(NCc4ccc(CN5CC(N6CCOCC6)C5)cc4F)c3C2=O)C(=O)N1 (stereo not shown) [Cpd 171, 2-(2,6-dioxopiperidin-3-yl)-4-(2-fluoro-4-((3-morpholinoazetidin-1-yl)methyl)benzylamino)isoindoline-1,3-dione]",< 200
18,"Cc1cc(CNc2cccc3c2C(=O)N(C2CCC(=O)NC2=O)C3=O)ccc1CN1CCN(c2ccc(C(N)=O)nc2)CC1 (stereo not shown) [Cpd 49, 5-(4-(4-((2-(2,6-dioxopiperidin-3-yl)-1,3-dioxoisoindolin-4-ylamino)methyl)-2-methylbenzyl)piperazin-1-yl)picolinamide]",< 200

# Next, values leading:
row,IC50 [nM],SMILES
1,< 200,"CC1(C)CCC2(CCN(Cc3ccc(CNc4cccc5c4C(=O)N(C4CCC(=O)NC4=O)C5=O)c(F)c3)CC2)O1 (stereo not shown) [Cpd 145, 4-(4-((2,2-dimethyl-1-oxa-8-azaspiro[4.5]decan-8-yl)methyl)-2-fluorobenzylamino)-2-(2,6-dioxopiperidin-3-yl)isoindoline-1,3-dione]"
2,< 200,"NC(=O)c1ccc(N2CCN(Cc3ccc(CNc4cccc5c4C(=O)N(C4CCC(=O)NC4=O)C5=O)cc3F)CC2)cc1 (stereo not shown) [Cpd 141, 4-(4-(4-((2-(2,6-dioxopiperidin-3-yl)-1,3-dioxoisoindolin-4-ylamino)methyl)-2-fluorobenzyl)piperazin-1-yl)benzamide]"
3,< 200,"CC(C)(C)N1CCN(Cc2ccc(CNc3cccc4c3C(=O)N(C3CCC(=O)NC3=O)C4=O)c(F)c2)CC1 (stereo not shown) [Cpd 95, 4-(4-((4-tert-butylpiperazin-1-yl)methyl)-2-fluorobenzylamino)-2-(2,6-dioxopiperidin-3-yl)isoindoline-1,3-dione]"
4,< 200,"O=C1CCC(N2C(=O)c3cccc(NCc4ccc(CN5CCC6(CCCO6)CC5)cc4)c3C2=O)C(=O)N1 (stereo not shown) [Cpd 90, 4-(4-(1-oxa-8-azaspiro[4.5]decan-8-ylmethyl)benzylamino)-2-(2,6-dioxopiperidin-3-yl)isoindoline-1,3-dione]"
5,< 200,"O=C1CCC(N2C(=O)c3cccc(NCc4ccc(CN5CCC(N6CCCS6(=O)=O)CC5)cc4F)c3C2=O)C(=O)N1 (stereo not shown) [Cpd 172, 4-((4-((4-(1,1-dioxidoisothiazolidin-2-yl)piperidin-1-yl)methyl)-2-fluorobenzyl)amino)-2-(2,6-dioxopiperidin-3-yl)isoindoline-1,3-dione]"
6,< 200,"O=C1CCC(N2C(=O)c3cccc(NCc4ccc(CN5CC6(CCCC6)C5)cc4)c3C2=O)C(=O)N1 (stereo not shown) [Cpd 39, 4-(4-(2-azaspiro[3.4]octan-2-ylmethyl)benzylamino)-2-(2,6-dioxopiperidin-3-yl)isoindoline-1,3-dione]"
7,501 to 750,"O=C1CCC(N2C(=O)c3cccc(NCc4ccc(CN5CC(c6ccccc6)C5)cc4)c3C2=O)C(=O)N1 (stereo not shown) [Cpd 6, 2-(2,6-dioxopiperidin-3-yl)-4-(4-((3-phenylazetidin-1-yl)methyl)benzylamino)isoindoline-1,3-dione]"
8,< 200,"NC(=O)c1ccc(N2CCN(Cc3ccc(CNc4cccc5c4C(=O)N([C@H]4CCC(=O)NC4=O)C5=O)c(F)c3)CC2)nc1 [Cpd 207, (S)-6-(4-(4-((2-(2,6-dioxopiperidin-3-yl)-1,3-dioxoisoindolin-4-ylamino)methyl)-3-fluorobenzyl)piperazin-1-yl)nicotinamide]"
9,751 to 1000,"O=C1CCC(N2C(=O)c3cccc(NCc4ccc(CN5CCC(O)(C(F)(F)F)CC5)cc4)c3C2=O)C(=O)N1 (stereo not shown) [Cpd 130, 2-(2,6-dioxopiperidin-3-yl)-4-(4-((4-hydroxy-4-(trifluoromethyl)piperidin-1-yl)methyl)benzylamino)isoindoline-1,3-dione]"
10,751 to 1000,"O=C1CCC(N2C(=O)c3cccc(NCc4ccc(CN5CC6(C5)CC(F)(F)C6)cc4)c3C2=O)C(=O)N1 (stereo not shown) [Cpd 116, 4-(4-((6,6-difluoro-2-azaspiro[3.3]heptan-2-yl)methyl)benzylamino)-2-(2,6-dioxopiperidin-3-yl)isoindoline-1,3-dione]"
